Data reported in US20080242681A1, “N-4-(6-(Hetero)Aryl-Pyrimidin-4-Ylaminophenyl)-Benzenesulfonamides as Kinase Inhibitors” (Altana Pharma AG, priority 2004, published 2008).
Where a name gives a salt, the structure may show the parent alone. One block for each compound: values may come before it.

Legend:
[1] = system: primary human CD4+ T lymphocytes; assay: CD3/CD28 costimulation assay, IL-2 release; type: cell-based; conditions: 48 h, IL-2 ELISA, read-out: IC50, inhibition of IL-2 release from stimulated CD4+ T lymphocytes
Protocol: The assay is performed with freshly isolated primary human CD4+ T lymphocytes. CD4+ T lymphocytes from whole blood are prepared using negative selection as previously described (Hatzelmann and Schudt, J. Pharmacol. Exp. Ther. 2001; 297:267-279). In brief, peripheral blood mononuclear cells (PBMC) are isolated by density gradient centrifugation using a Percoll gradient (p= 1.077 g/ml). 1×10^7 PBMC were then resuspended in 30 μl of PBS containing 0.5% FCS and human CD4+ T lymphocytes are isolated by depletion of non CD4+ T cells. For this, non-CD4+ T cells are Indirectly magnetically labeled with 10 μl of a cocktail of biotin-conjugated monoclonal antibodies (against CD8, CD14, CD16, CD19, CD36, CD56, CD123, TCR γ/δ; MACS CD4+ T cell isolation kit II, Miltenyi Biotec), as primary labeling reagent, and anti-biotin monoclonal antibodies conjugated to MicroBeads, as secondary labeling reagent The magnetically labeled non-CD4+ T cells are depleted by retaining them on a MACS column in the magnetic field of a MACS separator (Miltenyi Biotec, Bergisch Gladbach, Germany) according to the manufacturer's instruction. CD4+ T cells are resuspended in RPM 11640 containing 10% heat-inactivated FCS, 2 mM L-glutamine, 100 U/ml penicillin and 100 μg/ml streptomycin (Gibco Life Technologies).
2×10^5 CD4+ T cells in a total assay volume of 200 μl are stimulated via the T-cell receptor and the costimulatory molecule CO28 by using corresponding selective mAbs as previously described (Hatzelmann and Schudt, J. Pharmacol. Exp. Ther. 2001; 297:267-279). The assay is performed in 96 well tissue culture plates (655180, flat bottom, Greiner, Frickenhausen, Germany). Cells were maintained at 37° C. in a humidified atmosphere of 5% CO2 in an incubator (type BB6220 CU, Heraeus Instruments, Hanau, Germany). For determination of IL-2 level, all assays are performed in duplicate, and after 48 h of growth, supernatants are removed, pooled in 96 well plates (650101, U-shape, Greiner) and stored at −20° C. before measurement of IL-2 with a commercially available enzymimmunoassay kit from Coulter-Immunotech Diagnostics (Marseille, France) according to the manufacturer's instruction. For each experiment the appropriate dilution factor for IL-2 is determined. Dilutions are performed in diluent D (Coulter-Immunotech Diagnostics) and IL-2 for one condition is determined from the pool fraction in duplicate in a ELISA-reader (Rainbow, Tecan, Crailsheim, Germany) at 450 nm.
To investigate the effect of a test compound on the IL-2 release of stimulated CD4+ T cells, six three-fold dilution steps in duplicates per test compound are performed (final DMSO concentration 0.1%). […] The inhibition obtained In the presence of a test compound is calculated as percent inhibition of the high control. […]

responder T cells = assay: Mixed lymphocyte reaction (MLR), T cell proliferation; type: cell-based; conditions: [3H]thymidine incorporation after 48 h, read-out: IC50, inhibition of MLR-mediated T-cell proliferation
Protocol: For MLR cultures 4×10^5 responder T cells are incubated in duplicates with 2×10^5 mitomycin C-treated allogeneic stimulator T cells in a total volume of 200 μl RPMI 1640 medium supplemented with 10% FCS, 2 mM L-glutamine, 100 U/ml penicillin and 100 μg/ml streptomycin (Gibco Life Technologies) in 96 well tissue culture plates (655180, flat bottom, Greiner). Cells are maintained at 37° C. in a humidified atmosphere of 5% CO2. After 48 h of growth, cells are pulsed with 1 μCi [^3H]thymidine and incorporation of [^3H]thymidine is measured with a Topcount radioactive counter (Packard). To investigate the effect of a test compound on MLR-mediated T cell proliferation six three-fold dilution steps in duplicates per test compound are performed (final DMSO concentration 0.1%). Low control values are the proliferation of responder cells alone; high controls are from mixed lymphocyte cells without any test samples. Low controls are subtracted from all values. The inhibition obtained in the presence of a test compound is calculated as percent Inhibition of the high control. The concentration of test compounds resulting in 50% inhibition (IC50) is determined from the dose-response curves. The examples 91, 128, 133 and 137 inhibit MLR-mediated T-cell proliferation in this assay with an IC50<1 μM.

PKCη = target: T1, PKCη (Homo sapiens, UniProt P24723); assay: Protein Kinase C η assay (SPA); type: biochemical; conditions: human recombinant PKCη from Sf21 insect cells, read-out: IC50, inhibition of PKC η
T1 construct: made in house; host or cells: Sf21 insect cells
T1 sequence (P24723 whole entry): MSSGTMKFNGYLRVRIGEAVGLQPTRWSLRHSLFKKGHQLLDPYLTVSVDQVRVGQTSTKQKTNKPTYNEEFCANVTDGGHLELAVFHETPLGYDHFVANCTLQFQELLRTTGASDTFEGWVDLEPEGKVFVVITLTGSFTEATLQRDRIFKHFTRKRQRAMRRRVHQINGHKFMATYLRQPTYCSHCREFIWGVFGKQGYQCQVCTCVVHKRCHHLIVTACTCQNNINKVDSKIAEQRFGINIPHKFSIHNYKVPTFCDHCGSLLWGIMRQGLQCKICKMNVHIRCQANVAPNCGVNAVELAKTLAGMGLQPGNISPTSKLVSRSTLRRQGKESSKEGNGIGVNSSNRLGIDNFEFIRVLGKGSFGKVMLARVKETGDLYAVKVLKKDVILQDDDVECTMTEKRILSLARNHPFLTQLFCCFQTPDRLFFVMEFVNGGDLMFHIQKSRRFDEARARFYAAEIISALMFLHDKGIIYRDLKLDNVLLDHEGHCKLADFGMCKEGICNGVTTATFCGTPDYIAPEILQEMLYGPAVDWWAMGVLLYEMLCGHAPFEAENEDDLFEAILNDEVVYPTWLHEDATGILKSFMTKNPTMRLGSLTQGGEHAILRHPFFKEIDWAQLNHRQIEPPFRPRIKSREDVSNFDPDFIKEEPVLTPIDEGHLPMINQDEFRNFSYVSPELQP
Protocol: (§1) The compounds of formula 1 are tested for their activity on different protein kinases and PKC isoforms using a scintillation proximity assay (SPA, Amersham International plc). ^33P-labeled peptides are captured onto streptavidin coated yttrium silicate SPA beads. β-particles, emitted from the captured ^33P-labeled substrate in close proximity to the bead are able to excite the scintillant, resulting in the generation of quantifiable light. The assay is performed in a 96-well polystyrene microtiterplate (1450-514, Isoplates, Wallac, Turku, Finland). The reaction mixture (50 μl) contains 10 μl of the test compound together with 10 μl of the relevant kinase, diluted in the relevant dilution buffer, 5 μl of 10 μM phorbol myristate acetate (PMA) in H2O, 5 μl of 1.6 mM phosphatidylserine (Sigma-Aldrich Chemie GmbH, Stein-heim, Germany) in 20 mM Tris/HCL buffer pH 7.4, 5 μl of 0.3% BSA in H2O, 5 μl of 30 μM relevant substrate and 10 μl of 5 μM ATP and 0.1 μCi of ^33P-ATP (Amersham, Freiburg, Germany) in 200 mM Tris/HCL pH 7.5 and 200 mM MgCl2. Incubation is performed for 40 min at room temperature (RT) without shaking. Reaction is stopped by adding 150 μl of cold stop solution containing 10 mM ATP, 5 mM EGTA pH 7.5, 0.1% Triton X-100 and 0.2 mg streptavidin coated yttrium silicate SPA beads (Amersham, RPNQ 0012). The sealed plate is incubated for 60 min at RT. Thereafter the MTP is counted in a Microbeta Jet (Wallac). IC50 measurement is performed on a routine basis by incubation a serial dilution of inhibitor at concentrations ranging between 0.01 and 100 μM according to the method described above. Background values are the signals of the reaction mixture without addition of the relevant kinase and are subtracted from all values. 100% values are the signals of the reaction mixture without addition of inhibitors.
(§2) Dependent on the efficacy of the inhibitors In the various test systems, corresponding IC50 values are calculated from concentration-inhibition curves by nonlinear regression analysis using the program GraphPad Prism (GraphPad Software Inc., San Diego, Calif.).
(§3) Human recombinant nickel bead purified PKCη from Sf21 insect cells is used under the assay conditions as described above (Section A.1). The enzyme is diluted in PKC dilution buffer containing 1 mM Hepes pH 7.4, 0.5 mM DTT and 0.001% Triton X-100. The kinase reaction is performed with the biotinylated PKCη pseudosubstrate solved in H2O. The examples 52, 55, 118 and 135 inhibit PKC η in this assay with an IC50 between 6 and 50 μM.

PKCθ = target: T2, PKCθ (Homo sapiens, UniProt Q04759); assay: Protein Kinase C θ assay (SPA); type: biochemical; conditions: human recombinant PKCθ from Sf21 insect cells, read-out: IC50, inhibition of PKC θ
T2 construct: made in house; host or cells: Sf21 insect cells
T2 sequence (Q04759 whole entry): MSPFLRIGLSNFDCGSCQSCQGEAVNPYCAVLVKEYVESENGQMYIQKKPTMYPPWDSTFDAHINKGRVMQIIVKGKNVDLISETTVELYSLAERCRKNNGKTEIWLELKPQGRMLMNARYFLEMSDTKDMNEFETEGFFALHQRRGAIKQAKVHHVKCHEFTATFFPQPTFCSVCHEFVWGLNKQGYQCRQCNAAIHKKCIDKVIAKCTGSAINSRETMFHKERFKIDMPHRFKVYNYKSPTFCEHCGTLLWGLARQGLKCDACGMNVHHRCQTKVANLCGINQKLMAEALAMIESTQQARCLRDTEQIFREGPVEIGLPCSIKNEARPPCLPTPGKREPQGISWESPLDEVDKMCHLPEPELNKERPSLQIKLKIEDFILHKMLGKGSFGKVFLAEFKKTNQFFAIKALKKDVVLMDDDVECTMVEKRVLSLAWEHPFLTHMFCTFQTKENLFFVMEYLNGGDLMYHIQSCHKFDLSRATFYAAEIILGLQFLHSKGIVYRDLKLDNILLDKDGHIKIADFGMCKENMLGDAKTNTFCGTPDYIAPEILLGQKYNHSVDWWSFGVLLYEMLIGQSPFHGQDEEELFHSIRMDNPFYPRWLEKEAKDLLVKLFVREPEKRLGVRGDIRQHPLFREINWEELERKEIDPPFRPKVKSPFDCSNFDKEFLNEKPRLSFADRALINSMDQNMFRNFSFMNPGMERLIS
Protocol: as §1, §2
as §3, with “PKCθ” for “PKCη”, “8, 22, 46, 115,” for “52, 55,”, “161” for “135”, “9” for “η”, “IC50<1” for “IC50 between 6 and 50”

PKCδ = target: T3, PKCδ (Homo sapiens, UniProt Q05655); assay: Protein Kinase C δ assay (SPA); type: biochemical; conditions: human recombinant PKCδ, PKCη pseudosubstrate, read-out: IC50, inhibition of PKC δ
T3 construct: purchased Panvera
T3 sequence (Q05655 whole entry): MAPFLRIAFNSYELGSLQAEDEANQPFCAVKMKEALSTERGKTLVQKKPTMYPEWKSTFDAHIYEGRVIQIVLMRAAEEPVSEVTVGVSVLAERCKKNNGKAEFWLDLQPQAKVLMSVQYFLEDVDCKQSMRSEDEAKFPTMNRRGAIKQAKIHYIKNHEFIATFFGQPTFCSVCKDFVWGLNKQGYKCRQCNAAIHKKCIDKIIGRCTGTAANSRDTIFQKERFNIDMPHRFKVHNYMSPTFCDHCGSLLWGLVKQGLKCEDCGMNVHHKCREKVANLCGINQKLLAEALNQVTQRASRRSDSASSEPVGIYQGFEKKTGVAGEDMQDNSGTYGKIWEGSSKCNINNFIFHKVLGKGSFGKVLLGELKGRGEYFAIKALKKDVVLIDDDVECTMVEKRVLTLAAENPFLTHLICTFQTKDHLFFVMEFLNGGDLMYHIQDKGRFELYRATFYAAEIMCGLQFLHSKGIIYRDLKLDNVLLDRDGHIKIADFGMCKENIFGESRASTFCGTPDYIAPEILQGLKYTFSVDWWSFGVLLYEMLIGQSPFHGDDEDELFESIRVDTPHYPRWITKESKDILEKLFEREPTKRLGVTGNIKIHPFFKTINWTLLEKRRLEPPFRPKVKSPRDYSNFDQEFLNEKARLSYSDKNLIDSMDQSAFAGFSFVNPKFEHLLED
Protocol: as §1
Dependent on the efficacy of the inhibitors In the various test systems, corresponding IC50 values are calculated from concentration-inhibition curves by nonlinear regression analysis using the program GraphPad Prism (GraphPad Software Inc., San Diego, Calif.). […]

IC50 [1]: 1000 to 9000 nM
SMILES: O=S(=O)(Nc1ccc(Nc2cc(-c3cccc4ccccc34)ncn2)cc1)c1ccccc1F [Example 13, 2-Fluoro-N-[4-(6-naphthalen-1-yl-pyrimidin-4-ylamino)-phenyl]-benzenesulfonamide]

IC50 [1]: 1000 to 9000 nM
SMILES: COc1cccc(-c2cc(Nc3ccc(NS(=O)(=O)c4ccc(C#N)cc4)cc3)ncn2)c1 [Example 19, 4-Cyano-N-{4-[6-(3-methoxy-phenyl)-pyrimidin-4-ylamino]phenyl}benzenesulfonamide]

IC50 [1]: 1000 to 9000 nM
SMILES: COc1cccc(-c2cc(Nc3ccc(NS(=O)(=O)c4ccccc4F)cc3)ncn2)c1 [Example 20, 2-Fluoro-N-{4-[6-(3-methoxy-phenyl)-pyrimidin-4-ylamino]-phenyl}-benzenesulfonamide]

SMILES: CN1CCC(COc2ccc(-c3cc(Nc4ccc(NS(=O)(=O)c5ccc(F)cc5F)cc4)ncn3)cc2)CC1 [Example 91, 2,4-Difluoro-N-(4-{6-[4-(1-methyl-piperidin-4-ylmethoxy)-phenyl]-pyrimidin-4-ylamino}-phenyl)-benzenesulfonamide formic acid salt]
IC50 (responder T cells): < 1000 nM

IC50 (PKCη): 6000 to 50000 nM
IC50 (PKCθ): < 1000 nM
SMILES: O=S(=O)(Nc1ccc(Nc2cc(-c3ccc4[nH]ccc4c3)ncn2)cc1)c1ccc(F)cc1F [Example 118, 2,4-Difluoro-N-{4-[6-(1H-indol-5-yl)-pyrimidin-4-ylamino]-phenyl}-benzenesulfonamide]

IC50 (PKCδ): 2000 to 18000 nM
SMILES: COc1ccc(S(=O)(=O)Nc2ccc(Nc3cc(-c4ccc5c(ccn5CCN(C)C)c4)ncn3)cc2)cc1 [Example 132, N-(4-{6-[1-(2-Dimethylamino-ethyl)-1H-indol-5-yl]-pyrimidin-4-ylamino}-phenyl)-4-methoxy-benzenesulfonamide]

SMILES: CN(C)CCCn1ccc2cc(-c3cc(Nc4ccc(NS(=O)(=O)c5ccc(F)cc5F)cc4)ncn3)ccc21 [Example 133, N-(4-{6-[1-(3-Dimethylamino-propyl)-1H-indol-5-yl]-pyrimidin-4-ylamino}-phenyl)-2,4-difluorobenzenesulfonamide]
IC50 (responder T cells): < 1000 nM

IC50 [1]: 1000 to 9000 nM
SMILES: Cc1ccc(S(=O)(=O)Nc2ccc(Nc3cc(-c4ccc5c(ccn5CCN(C)C)c4)ncn3)cc2)cc1 [Example 136, N-(4-{6-[1-(2-Dimethylamino-ethyl)-1H-indol-5-yl]pyrimidin-4-ylamino}-phenyl)-4-methyl-benzenesulfonamide]

SMILES: CN(C)CCCn1ccc2cc(-c3cc(Nc4ccc(NS(=O)(=O)c5ccc(F)c(Cl)c5)cc4)ncn3)ccc21 [Example 137, 3-Chloro-N-(4-{6-[1-(3-dimethylamino-propyl)-1H-indol-5-yl]-pyrimidin-4-ylamino}-phenyl)-4-fluoro-benzenesulfonamide]
IC50 (responder T cells): < 1000 nM

IC50 (PKCδ): 2000 to 18000 nM
SMILES: CN(C)CCn1ccc2cc(-c3cc(Nc4ccc(NS(=O)(=O)c5ccc(F)c(Cl)c5)cc4)ncn3)ccc21 [Example 138, 3-Chloro-N-{4-[6-[1-(2-dimethylamino-ethyl)-1H-indol-5-yl]pyrimidin-4-ylamino]-phenyl}-4-fluoro-benzenesulfonamide]

IC50 (PKCδ): 2000 to 18000 nM
SMILES: CCN(CC)CCCn1ccc2cc(-c3cc(Nc4ccc(NS(=O)(=O)c5ccc(F)cc5F)cc4)ncn3)ccc21 [Example 168, N-(4-{6-[1-(3-Diethylamino-propyl)-1H-indol-5-yl]-pyrimidin-4-ylamino}-phenyl)-2,4-difluoro-benzenesulfonamide formic acid salt]
